This is an account of results in US20220403032A1, “THERAPY FOR DIABETES USING STEM CELL MIGRATION AGENT” (Biozipcode, Inc., priority 2019, published 2022).

The assay relates to diabetic patients (type 1 and type 2 diabetes mellitus). Description: Research Plan 2: therapy of diabetes mellitus targeting a bone marrow-derived abnormal hematopoietic stem cell. The format is in vivo, human. To be noted: type 1 and type 2 diabetic patients; twelve weeks of therapy; predicted result.

In the case of insulin [insulin alone], the “Effect of eliminating an abnormal hematopoietic stem cell” value was “not eliminated”; the “Effect of healing diabetes mellitus” value is on record as “not observed”; the “Therapeutic effect on a complication” value is recorded as “observed to some extent, but the complication does not heal”.
